Ends that are not written are not given here.
Columns and labels:
[1] = tested on: S. cohnii L5; experiment: MIC, broth microdilution; type: cell-based, Staphylococcus cohnii; conditions: for MICs of derivatives: strain not named in the sentence (table S6: S. cohnii L5 and E. coli)
[2] = pH stability; type: physicochemical; conditions: pH 2 to 12 for 1 and 2 hours, 37°C; read-out activity on S. cohnii L5
[3] = tested on: S. cohnii L5; experiment: Mouse skin wound infection model; type: in vivo; conditions: 10 days; NCBP1 8 mg/kg
[4] = tested on: A549 cells; experiment: Cytotoxicity, WST-1 assay; type: cell-based; conditions: up to 512 μM, 24 hours
[5] = tested on: Vero cells; experiment: Cytotoxicity, WST-1 assay; type: cell-based, African green monkey; conditions: up to 512 μM, 24 hours
[6] = tested on: BALB/c mice; experiment: In vivo toxicity experiments; set-up: species or system mouse; conditions: after 5 days; intraperitoneal, highest dose 150 mg/kg; n = 5
[7] = tested on: HEp-2 cells; experiment: Cytotoxicity, WST-1 assay; type: cell-based, human; conditions: up to 512 μM, 24 hours
[8] = tested on: H9c2 cells; experiment: Cytotoxicity, WST-1 assay; type: cell-based, rat; conditions: up to 512 μM, 24 hours
[9] = tested on: sheep red blood cells (RBCs); experiment: Hemolytic activity; type: cell-based; conditions: 0 to 512 μM, 37°C, 1 hour

Row | Sequence | MICs of derivatives [1] [µM] | pH stability [2] | growth of the mice, body weight [3] | toxicity toward cells [4] | toxicity toward cells [5] | MIC ([1]; S. cohnii L5, broth microdilution, 18 h, 37°C) [µM] | survival rate of mice [6] [%] | toxicity toward cells [7] | toxicity toward cells [8] | hemolytic activity [9]
1 | APWLRVALCPG [NCBP1a] | > 512 | – | – | – | – | – | – | – | – | –
2 | KPWLAVALCPG [NCBP1b] | > 512 | – | – | – | – | – | – | – | – | –
3 | KPWLRVALCPG [NCBP1] | – | resistant to a wide range of pH values | did not affect the normal growth | negligible toxicity | negligible toxicity | 16 | 100 | negligible toxicity | negligible toxicity | no noticeable hemolytic activity
